Values of other authors as cited in patent US8029830B2, “Composition and method for promoting internal health and external appearance” (Nuvocare Health Services Inc., priority 2008, dated 2011).
Where two headings read alike, the source gives them in different places.

What was measured:
rat kidney fibroblasts = conditions: UVA light
male subjects = conditions: cycling capacity
[1] = 28 days of supplementation
[2] = in vitro
macrophage cultures = conditions: impairment induced by phorbol esters
thymocytes = conditions: irradiated (6 Gy)
[3] = tested on: lean volunteers and post-obese subjects
older and younger women = conditions: following caffeine ingestion
[4] = human, in vivo
rats = conditions: rat, in vivo
sedentary human subjects = conditions: for body fat percentage, body fat mass and lean body mass: oral ingestion for 12 weeks
[5] = tested on: human plasma, blood platelets and lymphocytes
[6] = tested on: rat model of diabetic neuropathy; conditions: intraperitoneal treatment for 2 weeks
healthy volunteers = conditions: daily oral, 8 weeks
[7] = tested on: persons with type 2 diabetes mellitus
mice = conditions: topical application
pigs = conditions: pretreatment; hyperbaric oxygen (HBO)
healthy human volunteers = conditions: at the end of the treatment period

In the case of CC1=C(/C=C/C(C)=C/C=C/C(C)=C/C=C/C=C(C)/C=C/C=C(C)/C=C/C2=C(C)C(=O)[C@@H](O)CC2(C)C)C(C)(C)C[C@H](O)C1=O [astaxanthin], the improvement in skin-surface-moisture (middle-aged women; oral delivery, after 6 weeks) is listed as 52%, the reduction in wrinkles (middle-aged women; oral delivery, after 6 weeks) is listed as 54% and the “fine lines and wrinkles, elasticity and moisture content” value (middle-aged women; six weeks, instrumentation and dermatologist's review) is listed as “significant improvements”. For the same molecule, the “indices of oxidative stress (CAT, SOD activities, TBARS)” value (rat kidney fibroblasts) was “inhibit these indices of oxidative stress”, the “protective properties compared to beta-carotene and lutein” value (rat kidney fibroblasts) was “superior protective properties” and the “plasma 12- and 15-hydroxy fatty acids” value (healthy subjects; during supplementation) was “reduced significantly”. The plasma astaxanthin levels (healthy subjects; in vivo) was “significantly elevated” and the tolerability (healthy subjects; in vivo) was “well tolerated”.
For NCCC(=O)O [beta-alanine], the muscle carnosine levels (vastus lateralis) is given as “significant increases”, the “onset of neuromuscular fatigue and ventilatory threshold” value (women subjects; 4 weeks, submaximal workloads) is given as “delayed” and the time-to-exhaustion (women subjects; maximal cycle ergometry performance) is given as “increased”. For the same molecule, the “muscle carnosine level and total work done” value (male subjects) was “significant muscle carnosine level increases, as well as an increase in total work done” and the “increase in PWCFT” value [1] was 14.5%.
For CC[C@H](CC[C@@H](C)[C@H]1CC[C@H]2[C@@H]3CC=C4C[C@@H](O)CC[C@]4(C)[C@H]3CC[C@]12C)C(C)C [beta-sitosterol], the radical scavenging [2] is listed as “modest radical scavenger”, the glutathione/oxidized glutathione ratio (macrophage cultures) is listed as “reverts the impairment” and the “activities of antioxidant enzymes (SOD, CAT, GPx)” value (thymocytes) is listed as “increasing”. The “intracellular reactive oxygen species (ROS)” value (thymocytes) was “attenuating” and the “irradiation-induced cell death and nuclear DNA strand breaks” value (thymocytes) was “decreased”.
For Cn1c(=O)c2c(ncn2C)n(C)c1=O [caffeine], the “subsequent 12-h night EE” value ([3]; in vivo) is listed as “no influence”, the “increase in daily EE” value ([3]; lean volunteers) is listed as 150 kcal and the “increase in daily EE” value ([3]; post-obese subjects) is listed as 79 kcal. The “increase of energy expenditure (EE)” value ([3]; repeated administration at 2-hour intervals over a 12-hour day period, two subject groups) was 8-11%, the energy expenditure (older and younger women) was “increased energy expenditure significantly” and the energy expenditure [4] was “increased energy expenditure dose dependently”. For the same molecule, the neurodegeneration (rats) was “protective effects”.
In the case of C=C[C@@]1(C)CC(=O)[C@]2(O)[C@@]3(C)[C@@H](O)CCC(C)(C)[C@@H]3[C@H](O)[C@H](OC(C)=O)[C@@]2(C)O1 [forskholin], the “lean body mass gained, on average” value (sedentary human subjects; in the course of the study) is given as 8.2 pounds, the “body fat percentage, body fat mass and lean body mass” value (sedentary human subjects) is given as “significantly decrease body fat percentage while increasing lean body mass” and the “body fat percentage, body fat mass and lean body mass” value (sedentary human subjects; listed as forkohlin) is given as “decreasing body fat percentage and body fat mass”.
For Oc1ccc(C=Cc2cc(O)cc(O)c2)cc1 [resveratrol], the “oxidative stress levels in plasma” value ([5]; after incubation with platinum compounds) is given as “distinct reduction”, the “biomarker of lipid peroxidation” value ([5]; control blood platelets and platelets treated with platinum compounds) is given as “decreased the production” and the “DNA damage (measured by comet assay)” value ([5]; lymphocytes, vs platinum compounds without resveratrol) is given as “significant decrease”. For the same molecule, the “pathologies associated with diabetic neuropathy” value [6] was “protective effects”.
For [Zn] [zinc], the “plasma levels of lipid peroxidation products and DNA adducts” value (healthy volunteers) is listed as “decreased”, the “decrease of plasma TBARS” value ([7]; after six months) is listed as 15% and the plasma zinc values ([7]; after three and six months of supplementation, all subjects) is listed as “greater than 10.7 micro mol/L”.
For epigallocatechin-3-gallate [EGCG], the “UVB-induced skin tumor development” value (mice) is listed as “prevents UVB-induced skin tumor development”.
For superoxide dismutase, the DNA strand-break damage (pigs) is listed as “protected against DNA strand-break damage”.
For vitamin E, the “decrease of urine lipid peroxidation products” value (healthy human volunteers) is listed as 27%.
